One block for each molecule: values may come before it.
Tests used:
[1] = tested on: prelamin A; test: Western immunoblotting of prelamin A; type: cell-based, human; settings: HGPS MSCs, optimal concentration
Experimental: Whole-cell lysates of MSC were collected, separated by SDS-PAGE, and transferred onto PVPF membrane by liquid transfer method. Blots were blocked in 10% skim milk (Bio-Rad) in tween 0.1% tris-buffered saline (TTBS) 1× one hour at room temperature. The primary antibodies used were a mouse anti-lamins A/C 1:200 (Millipore, JOL2), a rabbit anti-prelamin A 1/100 (ANTOO45, Diatheva) and a β-actin 1/200000 (Sigma). Membranes were incubated during the night at 4° C. Antigen-antibody binding was detected using horseradish peroxidaseconjugated species-specific secondary antibodies (GE-Healthcare, Little Chalfont, UK) followed by enhanced chemiluminescence Western blotting detection reagents (Perkin-Elmer, Waltham, USA).

[2] = tested on: HDJ2; test: Western blot analysis of HDJ2 farnesylation; type: cell-based, human
[3] = tested on: HGPS MSCs; test: Nuclear shape abnormalities (lamin A/C immunostaining); type: cell-based, human; settings: 48 h, lamin A/C staining
Experimental: In the 4-steps protocol, cells were fixed in 4% paraformaldehyde (15 minutes, room temperature) before permeabilization and blocking in PBS supplemented with 0.1% triton X-100 and 1% BSA (Sigma-Aldrich, St. Louis, USA). Primary antibodies were incubated one hour at room temperature in blocking buffer. Antibodies included mouse anti-lamins A/C (clone JOL2, Millipore, Billerica, USA), rabbit anti-prelamin A (ANTOO45, Diatheva) and anti-Ki67 (clone Ki-S5, MAB4190, Millipore, Billerica, USA). Cells were stained with the species-specific fluorophore-conjugated secondary antibody (Invitrogen) (one hour, room temperature) and nuclei were visualized with Hoechst 33342.

[4] = tested on: HGPS MSCs; test: Live cell imaging (cell density); type: cell-based, human; settings: 7 days
Experimental: HGPS MSCs were seeded at 2500 cells per well in 96-well plates and cultivated during 7 days in presence of the drugs. Cell density was monitored using an IncuCyte ZOOM microscope (Essen Bioscience). Each value corresponds to the mean of cell densities of four pictures taken in three independent wells.

[5] = biological target: T1, FT (Homo sapiens, UniProt P49354+P49356); test: FT activity assay (Farnesyltransferase [3H] SPA); type: biochemical; settings: concentration inducing 50% of the maximum inhibiting effect of the compound
T1 construct: Reactions were started by adding 40 μL of treated or untreated cell lysate; endogenous in cells; host or cells: HGPS MSCs (cell lysate)
Experimental: (§1) Cell pellet of HGPS MSCs were resuspended in 25 mM Tris-HCl pH 7.4, 1 mM DTT, 1 mM MgCl2, 1 EDTA, 1 mM PMSF and centrifuged at 10,000×g for 10 min at 4° C. Protein content was determined using Lowry's method. Aliquots of cell lysate containing 100 μg of total proteins were incubated with tested substances at 37° C. for 30 min.
FT activity was determined by Famesyltransferase [3H] SPA enzyme assay (Amersham Life Science, Buckinghamshire, England). Briefly, FT activity was assayed in 20 μl of assay buffer containing 50 mmol/L Hepes, 30 mmol/L MgCl2, 20 mmol/L KCl and 5 mmol/L dithiothreitol, 20 μl of [3H]-FPP (12 pmol) and 20 μl of biotin lamin B. Reactions were started by adding 40 μL of treated or untreated cell lysate and incubated for 1 hour at 37° C. Reactions were stopped by the addition of 150 μL of stop reagent containing SPA bead and counted in a scintillation counter. FT activity was expressed as pmoles of incorporated [3H]-FPP into biotin lamin-B peptide per minute per milligram of total proteins (pmol/min/mg prot). Parallel samples were assayed to evaluate the total and the nonspecific radioactivity. In all experiments enzyme assays were carried out in triplicate.

[6] = biological target: T2, HMGCR (Homo sapiens, UniProt P04035); test: HMGCR colorimetric activity assay; type: biochemical
T2 construct: oxidation of NADPH by the catalytic subunit of HMGCR in the presence of the substrate HMG CoA; purchased Sigma-Aldrich
T2 sequence (P04035 340-888 limits assumed): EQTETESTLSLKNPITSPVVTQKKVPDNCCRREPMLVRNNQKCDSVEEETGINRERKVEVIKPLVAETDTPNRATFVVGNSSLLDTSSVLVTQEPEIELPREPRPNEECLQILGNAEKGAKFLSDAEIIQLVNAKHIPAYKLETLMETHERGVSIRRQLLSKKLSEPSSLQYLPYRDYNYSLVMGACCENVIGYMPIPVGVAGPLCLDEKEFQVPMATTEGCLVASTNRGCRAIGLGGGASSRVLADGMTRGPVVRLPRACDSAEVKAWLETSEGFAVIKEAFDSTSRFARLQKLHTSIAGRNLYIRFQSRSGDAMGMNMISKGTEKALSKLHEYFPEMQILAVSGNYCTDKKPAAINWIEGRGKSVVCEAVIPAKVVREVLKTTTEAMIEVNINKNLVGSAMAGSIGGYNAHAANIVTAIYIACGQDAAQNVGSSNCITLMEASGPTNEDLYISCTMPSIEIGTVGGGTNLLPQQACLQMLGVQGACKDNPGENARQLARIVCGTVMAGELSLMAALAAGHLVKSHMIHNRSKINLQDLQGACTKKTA
Experimental: HMGCR activity was measured using GCoA Reductase Assay Kit (Sigma-Aldrich) according to the manufacturer's protocol. The assay is based on the spectrophotometric measurement of the decrease in absorbance at 340 nm, which represents the oxidation of NADPH by the catalytic subunit of HMGCR in the presence of the substrate HMG CoA.

[7] = biological target: T3, FPPS (Homo sapiens, UniProt P14324); test: FPPS activity assay; type: biochemical; parameters: endogenous in cells; host or cells: HGPS MSCs (cell lysate); settings: concentration inducing 50% of the maximum inhibiting effect of the compound
T3 sequence (P14324 1-419): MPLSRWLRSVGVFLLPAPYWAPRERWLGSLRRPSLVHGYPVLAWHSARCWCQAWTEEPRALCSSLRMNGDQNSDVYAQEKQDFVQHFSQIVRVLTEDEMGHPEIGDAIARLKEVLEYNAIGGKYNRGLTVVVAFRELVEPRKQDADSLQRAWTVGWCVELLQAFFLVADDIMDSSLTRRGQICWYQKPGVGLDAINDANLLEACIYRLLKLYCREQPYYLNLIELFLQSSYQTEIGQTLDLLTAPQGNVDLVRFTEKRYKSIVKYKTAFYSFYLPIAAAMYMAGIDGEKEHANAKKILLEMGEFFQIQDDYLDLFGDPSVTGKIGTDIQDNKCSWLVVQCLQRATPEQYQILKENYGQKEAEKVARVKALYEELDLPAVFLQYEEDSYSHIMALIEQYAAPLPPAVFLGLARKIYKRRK
Experimental: as §1
FPPS assay was carried out with some modifications of the procedure of Krisans et al. (Krisans et al., 1994, The Journal of biological chemistry VOL. 269: 14165-14169) and described by Gupta et al. (Gupta et al., 1999, Eur J Med Chem, VOL. 43: 2751-2767). Briefly, FPPS was assayed in 150 μL containing 25 mmol/L Hepes, pH=7, 2 mmol/L MgCl2, 1 mmol/L dithiothreitol, 5 mmol/L KF, 1% A noctyl-β-glucopyranoside, 3.3 μmol/L [4-14C] IPP (18 Ci/mmol), 3 μmol/L unlabeled IPP and 20 μmol/L geranyl diphosphate. Reactions were started by adding 40 μL of treated or untreated cell lysate and incubated for 45 min at 37° C. Reactions were stopped by the addition of 150 μL 2.5 mol/L HCl in 80% ethanol containing 100 μg/mL farnesol as a carrier. The samples were hydrolyzed for 30 min at 37° C. to convert the FPP to farnesol and neutralized by the addition of 150 μL of 10% NaOH. The reaction product (farnesol) was extracted into 1 mL of N-hexane and an aliquot (200 μL) of the organic phase was used for radioactivity counting. Parallel samples were assayed to evaluate the total and the nonspecific radioactivity. In all experiments, enzyme assays were carried out in triplicate.

[8] = tested on: prelamin A farnesylation (nuclear localization of prelamin A) in HGPS MSCs; test: Prelamin A localization cell-based assay; parameters: species or system human; settings: for EC50: Homo sapiens, 48 h treatment, dose-response
Experimental: 2000 HGPS MSCs were plated in black 384-well clear-bottom plates (Corning). After 48 h of drug treatment, cells were fixed in 4% paraformaldehyde (15 minutes, room temperature). Permeabilization, blocking and primary hybridization steps were done concomitantly in a PBS solution supplemented with 0.1% triton X-100 and 1% BSA (Sigma-Aldrich, St. Louis, USA) and rabbit anti-prelamin A (ANTOO45, Diatheva) overnight at 4° C. Cells were stained with the species-specific fluorophore-conjugated secondary anti-rabbit antibody (Invitrogen) (one hour, room temperature) and nuclei were visualized with Hoechst 33342. These steps were automated using a washing/staining station (ELx405 Biotek, RapidStak Thermo, Multidrop Labsystems). Prelamin A localization was analyzed with an ayScan VTI HCS Reader (Cellomics). The first channel was used for nucleus identification (Hoechst 33342 staining) and the second one to identify prelamin A staining. Pictures were acquired with a 5× objective in high-resolution camera mode and were analyzed using the Spot Detector bioapplication. The robustness of the assay was evaluated using the Z′ factor calculated as ollows Z′=1−[3(SDP+SDN)/(MP−MN)] where MP and MN correspond to the means of the positive (tipifarnib 1 μM) and negative (DMSO 0.1%) controls, respectively, and SDP and SDN correspond to their standard deviation.
The primary screen was conducted on Biocell 1800 (Agilent). […]
Data analysis of the screening was performed using a customized Hiscreen application (Discngine, Paris, France) connected to Spotfire software (Tibco Co). Screening robustness was evaluated by calculating for each plate the Z'factor on the percentage of prelaminA nuclei parameter. […]
This study was performed on MSCs derived from HGPS iPS cells, differentiated as previously described (Blondel et al., 2014, Stem Cells Transl Med, VOL. 3: 510-519) and used after ten passages of amplification. […] A high throughput immunostaining assay was developed to robustly quantify prelamin A expression and localization in 384-well plates. […]

SMILES: CCCc1c(C(=O)N2CCN(c3cc(N(C)c4cccc(C)c4)ncn3)CC2)cnn1-c1ccccc1 [Di-AP2, {4-[6-(Methyl-m-tolyl-amino)-pyrimidin-4-yl]-piperazin-1-yl}-(1-phenyl-5-propyl-1H-pyrazol-4-yl)-methanone]
prelamin A level (Western blot) [1]: increased | unfarnesylated form of HDJ2 [2]: increase of the unfarnesylated form of the protein | rescue of nuclear shape abnormalities [3]: restored significantly

SMILES: N#CC(c1ccccn1)c1ccnc(N2CCC(O)(Cc3ccccc3)CC2)n1 (stereo not drawn) [Mono-AP3, [2-(4-Benzyl-4-hydroxy-piperidin-1-yl)-pyrimidin-4-yl]-pyridin-2-yl-acetonitrile]
unfarnesylated form of HDJ2 [2]: increase of the unfarnesylated form of the protein | rescue of nuclear shape abnormalities [3]: restoring HGPS MSCs nuclear shape defects at levels not significantly different from the FTI tipifarnib | cytostatic effect in long term live imaging cultures [4]: less cytostatic than the FTI tipifarnib | IC50 [5]: 0.35 µM | IC50 (μM) HMGCR [6]: No inhibition | IC50 [7]: 5.54 µM

SMILES: CCOC(=O)CN1CCN(c2nccc(C(C#N)c3ccccn3)n2)CC1 (stereo not drawn) [Mono-AP25, {4-[4-(Cyano-pyridin-2-yl-methyl)-pyrimidin-2-yl]-piperazin-1-yl}-acetic acid ethyl ester]
efficiency on prelamin A farnesylation (in words) ([8]; dose response): decrease in efficiency

The remaining lines, values ahead:

EC50 [8]: 1500 nM
SMILES: Cc1cccc(CN2CCN(c3nccc(C(C#N)c4ccccn4)n3)CC2)c1 (stereo not drawn) [Mono-AP21, {2-[4-(3-Methyl-benzyl)-piperazin-1-yl]-pyrimidin-4-yl}-pyridin-2-yl-acetonitrile]

EC50 [8]: 2000 nM
SMILES: N#CC(c1ccccn1)c1ccnc(N2CCN(Cc3cccc(F)c3)CC2)n1 (stereo not drawn) [Mono-AP28, {2-[4-(3-Fluoro-benzyl)-piperazin-1-yl]-pyrimidin-4-yl}-pyridin-2-yl-acetonitrile]

— patent US10654838B2, “Aminopyridine compounds useful as inhibitors of protein prenylation” (INSTITUT NATIONAL DE LA SANTE ET DE LA RECHERCHE MEDICALE …, priority 2014, dated 2020)
